This note sets out measurements from patent US8987242B2, “Morpholinone compounds as factor IXA inhibitors” (Merck Sharp & Dohme Corp., priority 2008, dated 2015).

Structures can show the parent of a compound that is named as a salt.

human factor IXa, sequence (P00740 227-461): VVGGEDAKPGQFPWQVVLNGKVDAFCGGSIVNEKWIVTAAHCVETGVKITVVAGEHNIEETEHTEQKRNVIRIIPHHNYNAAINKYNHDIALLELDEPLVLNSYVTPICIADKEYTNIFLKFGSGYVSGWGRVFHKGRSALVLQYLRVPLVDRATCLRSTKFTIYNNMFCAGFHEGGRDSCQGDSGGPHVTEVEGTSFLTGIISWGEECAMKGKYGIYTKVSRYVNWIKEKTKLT
human factor IXa, sequence (P00740 47-191 partner): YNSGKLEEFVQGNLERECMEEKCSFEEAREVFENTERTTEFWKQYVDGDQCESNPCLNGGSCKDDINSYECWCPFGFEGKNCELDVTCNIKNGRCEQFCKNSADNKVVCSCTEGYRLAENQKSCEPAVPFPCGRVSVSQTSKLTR

One experiment has as its target human factor IXa (Homo sapiens (Human), UniProt P00740). The experiment can be described thus: Determination of inhibitory activity against factor IXa (SPECTROFLUOR FIXa fluorogenic substrate enzyme assay). The class given is biochemical. Particulars: human factor IXa 2.0 μg/ml, SPECTROFLUOR FIXa 100 μM, 60 minutes at room temperature, pH 8.0; read-out: Factor IXa enzyme assay IC50. The procedure:
Inhibitory activity against factor IXa was tested using the substrate SPECTROFLUOR FIXa (american diagnostica inc.; 500 West Avenue, Stamford, Conn. 06902 USA; Pr. No. 299F) and human factor IXa (american diagnostica inc.; Pr. No. 449b). Test substances dissolved in buffer A (50 mM α,α,α-tris(hydroxymethyl)methylamine (Tris), 100 mM NaCl, 5 mM CaCl2, 15% (v/v) ethylene glycol, pH 8.0) were mixed with factor IXa (2.0 μg/ml final concentration). The enzyme reaction was started by addition of SPECTROFLUOR FIXa (100 μM final concentration). After incubation for 60 minutes at room temperature, the reaction was stopped by the addition of 20% (v/v) acetic acid solution, and then measured the fluorescence value (Excitation Wavelength: 355 nm, Emission Wavelength; 460 nm) in a microtiter plate reader (ARVO 1420 Multilabel Counter; PerkinElmer).
The IC50 was calculated from a dilution series of the test substance with the aid of the software, Symix Assay Explorer (Symyx Technologies, Inc.).
With `N=C1NCc2cc(NC(=O)[C@H](O)[C@H]3OCCN(c4ccc(F)c(C(=O)N5CCOCC5)c4)C3=O)ccc21` [Example aa144, N-(2,3-Dihydro-1-imino-1h-isoindol-5-yl)-4-[4-fluoro-3-(4-morpholinylcarbonyl)phenyl]-alpha(R)-hydroxy-3-oxo-2(R)-morpholineacetamide], the 50% inhibitory concentration (IC50) (as a rule, the concentration needed to halve the response being measured) was determined as 13 nM.
As for `N#Cc1ccccc1N1CCO[C@H]([C@@H](O)C(=O)Nc2ccc3c(c2)CNC3=N)C1=O` [Example aa142, 4-(2-Cyanophenyl)-N-(2,3-dihydro-1-imino-1h-isoindol-5-yl)-alpha(R)-hydroxy-3-oxo-2(R)-morpholine acetamide], the IC50 amounted to 66 nM.
On the same count and under the same terms, with `Nc1noc2cc(NC(=O)[C@H](O)[C@H]3OCCN(c4ccc(S(F)(F)(F)(F)F)cc4)C3=O)ccc12` [Example aa151, [4-[2(R)-[2-[(3-Amino-1,2-bcnzisoxazol-6-yl)amino]-1(R)-hydroxy-2-oxoethyl]-3-oxo-4-morpholinyl]phenyl] pentafluorosulfur] the figure was 380 nM; with `Nc1noc2cc(NC(=O)[C@H](O)[C@H]3OCCN(c4ccc(F)c(C(=O)N5CCOCC5)c4)C3=O)c(F)cc12` [Example aa152, N-(3-Amino-5-fluoro-1,2-benzisoxazol-6-yl)-4-[4-fluoro-3-(4-morpholinylcarbonyl)phenyl]-alpha(R)-hydroxy-3-oxo-2(R)-morpholineacetamide], 1200 nM.

The same experiment, now with this note: human factor IXa 2.0 μg/ml, SPECTROFLUOR FIXa 100 μM, 60 minutes at room temperature, pH 8.0; read-out: Factor IXa enzyme assay IC50 [micro M].
`CC(C)(C)c1ccc(N2CCO[C@H]([C@@H](O)C(=O)Nc3ccc(C(=N)N)cc3F)C2=O)cc1` [Example 67, (2R)—N-(4-amidino-2-fluorophenyl)-2-[(2R)-4-(4-tert-butylphenyl)-3-oxomorpholin-2-yl]-2-hydroxyacetamide acetate]: the IC50 stood at 60 nM.
For `Cc1ccc(N2CCOC(C(O)C(=O)Nc3ccc(C(=N)N)cc3)C2=O)cc1` (stereo not shown) [Example 2, N-(4-amidinophenyl)-2-hydroxy-2-(3-oxo-4-p-tolylmorpholin-2-yl)acetamide trifluoroacetate], the IC50 is 30 nM.
The same measure, in the same setting: with `N=C(N)c1ccc(NC(=O)[C@H](O)[C@H]2OCCN(c3cccc(NC(=O)CO)c3)C2=O)cc1` [Example 50, (2R)—N-(4-amidinophenyl)-2-hydroxy-2-[(2R)-4-[3-[(2-hydroxyacetyl)amino]phenyl]-3-oxomorpholin-2-yl]acetamide hydrochloride] the figure was 20 nM.
Turning to `Cc1ccc(N2CCO[C@H]([C@@H](O)C(=O)Nc3ccc4c(N)nccc4c3)C2=O)cc1` [Example 62, (2R)—N-(1-aminoisoquinolin-6-yl)-2-hydroxy-2-[(2R)-3-oxo-4-p-tolylmorpholin-2-yl]acetamide hydrochloride], the concentration for half-maximal inhibition (IC50) amounted to 20 nM.
Turning to `Cc1ccc(N2CCOC(C(O)C(=O)Nc3ccc4c(N)nccc4c3)C2=O)cc1` (stereo not shown) [Example 1, N-(1-aminoisoquinolin-6-yl)-2-hydroxy-2-(3-oxo-4-p-tolylmorpholin-2-yl)acetamide trifluoroacetate], the IC50 was 40 nM.
In the case of `CC(=O)N1CCN(c2ccc(C)cc2)C(=O)C1C(O)C(=O)Nc1ccc2c(N)nccc2c1` (stereo not shown) [Example 109, 2-[1-acetyl-3-oxo-4-(p-tolyl)piperazin-2-yl]-N-(1-amino-6-isoquinolyl)-2-hydroxy-acetamide trifluoroacetate], the IC50 worked out at 60 nM.
The same measure, in the same setting: with `CS(=O)(=O)c1ccccc1-c1ccc(N2CCO[C@H]([C@@H](O)C(=O)Nc3ccc(C(=N)N)cc3)C2=O)cc1` [Example 105, (2R)—N-(4-amidinophenyl)-2-hydroxy-2-[(2R)-4-[4-(2-methylsulfonylphenyl)phenyl]-3-oxomorpholin-2-yl]acetamide hydrochloride] the figure was 10 nM.
On the same count and under the same terms, with `N=C(N)c1ccc(NC(=O)[C@H](O)[C@H]2OCCN(c3ccc(C4CCCCC4)cc3)C2=O)cc1` [Example 15, (2R)—N-(4-amidinophenyl)-2-[(2R)-4-(4-cyclohexylphenyl)-3-oxomorpholin-2-yl]-2-hydroxyacetamide hydrochloride] the figure was 20 nM.
On the same count and under the same terms, with `Cc1ccc(N2CCCO[C@H]([C@@H](O)C(=O)Nc3ccc(C(=N)N)cc3)C2=O)cc1` [Example 114, (2R)—N-(4-amidinophenyl)-2-hydroxy-2-[(2R)-3-oxo-4-(p-tolyl)-1,4-oxazepan-2-yl]acetamide hydrochloride] the figure was 30 nM.
